# Measured values published in patent publication US7135572B2 (CJ Corp, priority 2001, dated 2006).
# Experiments:
# [1] = target: T1, cyclooxygenase-1 (Homo sapiens, UniProt P23219); assay: Inhibition of cyclooxygenase-1 in U-937 cells (PGE2 quantitation); type: cell-based; details: U-937 cells
# T1 construct: The cultured U-937 (humane lymphoma cell, obtained from Korean cell line bank) was centrifuged to collect the pellet; endogenous in cells; host or cells: U-937 (human lymphoma cell line, Korean cell line bank)
# T1 sequence (P23219 24-599): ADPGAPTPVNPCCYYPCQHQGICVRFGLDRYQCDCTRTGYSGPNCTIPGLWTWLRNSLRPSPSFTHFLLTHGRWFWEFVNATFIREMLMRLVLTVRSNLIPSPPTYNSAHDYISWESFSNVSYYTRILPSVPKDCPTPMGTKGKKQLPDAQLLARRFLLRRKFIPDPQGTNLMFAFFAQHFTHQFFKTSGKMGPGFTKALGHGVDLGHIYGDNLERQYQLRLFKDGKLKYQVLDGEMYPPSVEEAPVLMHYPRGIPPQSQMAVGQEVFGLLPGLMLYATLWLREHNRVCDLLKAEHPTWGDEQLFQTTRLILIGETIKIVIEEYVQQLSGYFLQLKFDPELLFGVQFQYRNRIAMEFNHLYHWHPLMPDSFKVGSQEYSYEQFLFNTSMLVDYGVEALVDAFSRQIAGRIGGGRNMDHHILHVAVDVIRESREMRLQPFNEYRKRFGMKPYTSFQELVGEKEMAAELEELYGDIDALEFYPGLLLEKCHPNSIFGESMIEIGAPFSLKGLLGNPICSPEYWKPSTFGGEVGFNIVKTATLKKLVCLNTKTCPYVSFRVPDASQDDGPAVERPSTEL
# Protocol: (§1) In order to investigate pharmacologically the selective inhibition activity against cyclooxygenase-2 enzyme, the inhibitive effects against cyclooxygenase-1 and cyclooxygenase-2 were measured by two methods as follows.
# Then, the pellet was diluted with 1×HBSS(Hank's balanced salt solutin) at the concentration of 1×10^6 cells/ml, and 1 ml of them was transferred into each well of 12-well plates, and then dissolved with DMSO. 5μl of the diluted sample solution, and 5μl of DMSO vehicle were added therein and mixed, and the mixture was cultured at 37° C. in Co2 incubator for 15 minutes. Arachidonic acid as a substrate was dissolved in ethanol to prepare a stock solution with a concentration of 10 mM, followed by diluting with 1×HBSS to prepare the solution of 1 mM. 10 μl of 1 mM Arachidonic acid solution was added to each of the treated wells, and the mixture was cultured at 37° C. in CO2 incubator for 30 minutes. The cell solution of each well was collected in the centrifuge tube and was centrifuged at 4° C. for 5 minutes at 10,000 rpm. As PGE2 existed in the supernatant separated from collected cell, the concentration of PGE2 was quantitated by using monoclonal kit from Cayman Chemicals, and the concentration of samples and vehicle were compared to estimate the inhibition ratio (%) of each compound against cyclooxygenase-1. Ultimately, the inhibition effect against the cyclooxygenase-1 enzyme was obtained from the result.
# [2] = target: T2, cyclooxygenase-2 (Mus musculus, UniProt Q05769); assay: Inhibition of cyclooxygenase-2 in Raw 264.7 cells treated with interferon γ and LPS (PGE2 EIA); type: cell-based; details: Raw 264.7 cells
# T2 construct: endogenous in cells; host or cells: Raw 264.7 (Korean cell line bank), aspirin-pretreated, induced with interferon gamma and LPS
# T2 sequence (Q05769 18-604): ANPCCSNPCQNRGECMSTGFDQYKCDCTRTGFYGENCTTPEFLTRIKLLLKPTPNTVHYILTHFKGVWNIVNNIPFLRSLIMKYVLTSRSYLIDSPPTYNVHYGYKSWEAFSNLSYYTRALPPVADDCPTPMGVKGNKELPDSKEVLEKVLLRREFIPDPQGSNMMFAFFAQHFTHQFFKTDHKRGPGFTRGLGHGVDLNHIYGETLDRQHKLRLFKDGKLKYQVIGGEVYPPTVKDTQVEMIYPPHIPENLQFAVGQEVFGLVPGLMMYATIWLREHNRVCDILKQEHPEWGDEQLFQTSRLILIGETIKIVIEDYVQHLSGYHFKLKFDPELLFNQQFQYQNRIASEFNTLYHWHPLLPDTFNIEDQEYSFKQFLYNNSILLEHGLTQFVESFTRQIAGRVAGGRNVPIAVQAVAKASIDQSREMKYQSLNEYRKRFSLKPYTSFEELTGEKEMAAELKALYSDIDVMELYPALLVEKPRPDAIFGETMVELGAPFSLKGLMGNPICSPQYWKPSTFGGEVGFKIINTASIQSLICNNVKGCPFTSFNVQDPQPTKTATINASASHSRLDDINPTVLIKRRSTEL
# Protocol: as §1
# And then, each samples were replaced with new media and cultured for 30 minutes. In addition, the samples was treated with 100 units/ml of interferon Υ and 100 ng/ml of lipopolysaccharide(LPS), and cultured for 18 hours. Then, the media was transferred to other tubes and the PGE 2 was quantitated by using EIA kit from Cayman Chemicals.
SMILES,Inhibitory effects of cyclooxygenase (COX): COX-1 ([1]; 3 μM),Inhibitory effects of cyclooxygenase (COX): COX-1 ([1]; 10 μM),Inhibitory effects of cyclooxygenase (COX): COX-1 ([1]; 30 μM),Inhibitory effects of cyclooxygenase (COX): COX-2 ([2]; 30 nM),Inhibitory effects of cyclooxygenase (COX): COX-2 ([2]; 100 nM),Inhibitory effects of cyclooxygenase (COX): COX-2 ([2]; 300 nM)
"Cc1nc(-c2cccc(F)c2)n(-c2ccc(S(N)(=O)=O)cn2)n1 [Example 20, 6-[5-(3-fluoro-phenyl)-3-mehtyl-[1,2,4]triazole-1-yl]-pyridine-3-sulfonic acid amide]",27.2 % inhibition,31.6 % inhibition,34.7 % inhibition,30.2 % inhibition,57.8 % inhibition,74.0 % inhibition
"Cc1nc(-c2ccccc2)n(-c2ccc(S(C)(=O)=O)cc2)n1 [Example 24, 1-(4-methanesulfony-phenyl)-3-methyl-5-phenyl-1H-[1,2,4]triazole]",1.3 % inhibition,40.8 % inhibition,71.5 % inhibition,29.7 % inhibition,38.0 % inhibition,64.4 % inhibition
"COc1cccc(-c2nc(C)nn2-c2ccc(S(N)(=O)=O)cc2)c1 [Example 10, 4-[5-(3-methoxy-phenyl)-3-methyl-[1,2,4]triazole-1-yl]-benzenesulfonamide]",38.8 % inhibition,42.0 % inhibition,45.6 % inhibition,42.1 % inhibition,54.2 % inhibition,68.8 % inhibition
"COc1cc(OC)cc(-c2nc(C)nn2-c2ccc(S(N)(=O)=O)cn2)c1 [Example 22, 6-[5-(3,5-dimethoxy-phenyl)-3-methyl-[1,2,4]triazole-1-yl]-pyridine-3-sulfonic acid amide]",15.1 % inhibition,26.8 % inhibition,31.1 % inhibition,27.3 % inhibition,29.8 % inhibition,36.2 % inhibition
"Cc1nc(-c2ccc(Br)cc2)n(-c2ccc(S(C)(=O)=O)cc2)n1 [Example 30, 5-(4-bromo-phenyl)-1-(4-methanesulfonyl-phenyl)-3-methyl-1H-[1,2,4]triazole]",77.6 % inhibition,79.8 % inhibition,82.1 % inhibition,27.3 % inhibition,29.8 % inhibition,36.2 % inhibition
